Laboratory results as given in EP3917907B1, “MODULATORS OF POTASSIUM ION CHANNELS AND USES THEREOF” (Universitá Degli Studi Di Salerno, priority 2019, dated 2020).

How the values were obtained:
[1] = Photostability (HPLC, solar simulator irradiation); format: physicochemical; conditions: percentage of degradation after 6 h irradiation with solar simulator; 100 ppm in extracellular solution pH 7.4
Experimental: (§1) In order to study the solution stability and photostability of the potassium channel modulators object of the present invention, a stock solution of the proper analyte (1 mg/mL) in dimethylsulfoxide (DMSO) has been prepared. This solution has been then diluted to a concentration of 100 ppm using extracellular solution containing (in mM): 138 NaCl, 2 CaCl2, 5.4 KCl, 1 MgCl2, 10 glucose, and 10 HEPES, at pH 7.4, adjusted with NaOH. To measure solution stability, the diluted solutions have been maintained at ambient temperature for 6 h. To measure photostability, the diluted solutions have been irradiated for 6 h using a Oriel Sol3A Solar Simulator (Newport corporation, Irvine, CA, USA) with a 12x12 inches output beam. Aliquots of solution have been withdrawn after 6h and analyzed by HPLC using a Kinetex C18, 150 mm × 4.6 mm × 2.6 µm (Phenomenex, Bologna, Italy) as stationary phase and a mobile phase constituted by A: H2O/CH3CN (80:20) and B: CH3CN. Gradient elution has been performed from 20% to 90% of B in 7.50 minutes and from 90% to 20% of B in 1 minute. The pump flux has been set to 1.5 mL/min. Column has been thermostatted at 40°C during analysis. Results are espressed in Table 3 as percentage of degradation of the product calculated as ratio between the peak area of the analyte at time 0 (Pa0) and after 6h (Pa6) using the following formula: % degradation = (Pa0−Pa6)/Pa0 *100. [formula]

Kv7.2 = biological target: T1, Kv7.2 (Homo sapiens, UniProt O43526); experiment: Whole-cell patch-clamp on CHO cells transiently expressing Kv7.2; format: cell-based; conditions: CHO cells, mean±SEM, >1 activating, <1 inhibiting; for Idrug/Ictl at 0 mV: ratio of ramp-evoked Kv7.2 current amplitude in presence and absence of drug at 0 mV; for Idrug/Ictl at -40 mV: ratio of ramp-evoked Kv7.2 current amplitude in presence and absence of drug at -40 mV
T1 construct: expressed in transfected cells; host or cells: CHO cells (ATCC CRL-9618), transient transfection, pcDNA3.1(+)
Experimental: According to the experimental protocol, these plasmids were expressed individually or in combination (in particular of Kv7.2 and Kv7.3), together with a plasmid-expressing enhanced green fluorescent protein (Clontech, Palo Alto, CA) used as a transfection marker. Total cDNA in the transfection mixture was kept at 4 µg. CHO cells were grown in 100-mm plastic Petri dishes in Dulbecco's modified Eagle's medium containing 10% fetal bovine serum, nonessential amino acids (0.1 mM), penicillin (50 U/ml), and streptomycin ([…]) in a humidified atmosphere at 37°C with 5% CO2. The cells were plated on glass coverslips coated with poly-L-lysine, and transfected one day after plating with the appropriate cDNA using Lipofectamine 2000 (Life Technologies), according to the manufacturer's protocol.
Currents from CHO cells were recorded at room temperature (20-22°C) 24 hours after trasfection using the whole-cell configuration of the patch-clamp technique, with glass micropipettes of 3-5 MΩ resistance. During the recording, constant perfusion of extracellular solution was maintained. The extracellular solution contained (in mM): 138 NaCl, 2 CaCl2, 5.4 KCl, 1 MgCl2, 10 glucose, and 10 HEPES, at pH 7.4, adjusted with NaOH. The pipette (intracellular) solution contained (in mM): 140 KCl, 2 MgCl2, 10 EGTA, 10 HEPES, 5 Mg^2+-ATP, at pH 7.3-7.4, adjusted with KOH. Currents were recorded using an Axopatch-200A amplifier, filtered at 5 kHz, and digitized using a DigiData 1440A (Molecular Devices). The pCLAMP software (version 10.2, Molecular Devices) was used for data acquisition and analysis. To evaluate the activity of exemplary compounds on Kv7.2 (see Table 1), as well as on Kv7.1, Kv7.2/7.3, Kv7.3 and Kv7.4 channels for selected compounds (see Table 2), the cells were clamped at -80 mV and currents were elicited by 3-s voltage ramps from -80 mV to +20 mV in the presence and absence of each compound. […] The effects of drugs were expressed as shift in the ramp-voltage (ΔV) calculated at 20% of the maximal current (Miceli et al, Proc Natl Acad Sci U S A. 2013, 110(11):4386-91). Curves were fitted using the following equation: y=max/(1+x/EC50)n, where x is the drug concentration, n is the Hill coefficient and max is the maximal value achieved, as previously described (Ambrosino et al, Br J Pharmacol. 2013, 168(6):1430-1444). Data analysis and fit were performed using Sigmaplot (version 12.3).
Ramp-evoked Kv7.2 currents were analyzed by measuring the currents at -40 mV (a membrane potential value close to the activation threshold) and at 0 mV (a membrane potential value at which Kv7.2 conductance is largely saturated). In particular, -40 mV represents the threshold potential for spike initiation and 0 mV represents instead the membrane potential value at which maximal conductance of the channel is achieved.
In Table 1, the effect of exemplary compounds of the invention is expressed as the ratio between current amplitude in the presence (Idrug) and absence (Ictl) of the drug at these two membrane voltages. […]

[2] = Solution stability (HPLC, extracellular solution, ambient temperature); format: physicochemical; conditions: percentage of degradation after 6 h at ambient temperature; 100 ppm in extracellular solution pH 7.4
Experimental: as §1

| Photostability [1] | Idrug/Ictl at 0 mV (Kv7.2) | Idrug/Ictl at -40 mV (Kv7.2) | Solution stability [2] | Structure (SMILES) |
| --- | --- | --- | --- | --- |
| B (20%< degradation<40%) | 0.84±0.09 | 0.98±0.09 | A (degradation lower than 20%) | CC(C)(C)CNC(=N)Nc1ccc2c(c1)CCN2Cc1ccc(F)cc1 [1-(1-(4-fluorobenzyl)indolin-5-yl)-3-neopentylguanidine] |
| A (degradation lower than 20%) | 1.40±0.08 | 3.31±0.61 | A (degradation lower than 20%) | CC(C)(C)CNC(=O)Nc1ccc2c(c1)CCN2Cc1ccc(F)cc1 [1-(1-(4-fluorobenzyl)indolin-5-yl)-3-neopentylurea] |
| C (degradation > 40%) | 1.16±0.07 | 1.49±0.28 | C (degradation > 40%) | CC1(C)[C@H]2CC[C@]1(CS(=O)(=O)Nc1ccc3c(c1)CCN3Cc1ccc(F)cc1)C(=O)C2 [1-((1R,4S)-7,7-dimethyl-2-oxobicyclo[2.2.1]heptan-1-yl)-N-(1-(4-fluorobenzyl)indolin-5-yl)methanesulfonamide] |
| C (degradation > 40%) | 0.99±0.06 | 1.12±0.05 | C (degradation > 40%) | CC1(C)[C@@H]2CC[C@@]1(CS(=O)(=O)Nc1ccc3c(c1)CCN3Cc1ccc(F)cc1)C(=O)C2 [1-((1S,4R)-7,7-dimethyl-2-oxobicyclo[2.2.1]heptan-1-yl)-N-(1-(4-fluorobenzyl)indolin-5-yl)methanesulfonamide] |
| B (20%< degradation<40%) | 0.85±0.12 | 0.95±0.16 | A (degradation lower than 20%) | O=C(Nc1ccc2c(c1)CCN2Cc1ccc(F)cc1)NC1CCCCC1 [1-cyclohexyl-3-(1-(4-fluorobenzyl)indolin-5-yl)urea] |
| A (degradation lower than 20%) | 0.86±0.01 | 1.50±0.16 | A (degradation lower than 20%) | COCCOCC(=O)Nc1ccc2c(ccn2Cc2ccc(C(F)(F)F)cc2)c1 [2-(2-methoxyethoxy)-N-(1-(4-(trifluoromethyl)benzyl)-1H-indol-5-yl)acetamide] |
| A (degradation lower than 20%) | 1.18±0.09 | 1.64±0.10 | A (degradation lower than 20%) | O=S(=O)(CCC1CCCCC1)Nc1ccc2c(ccn2Cc2ccc(F)cc2)c1 [2-cyclohexyl-N-(1-(4-fluorobenzyl)-1H-indol-5-yl)ethane-1-sulfonamide] |
| A (degradation lower than 20%) | 1.71±0.12 | 2.37±0.40 | A (degradation lower than 20%) | O=C(CC1CCCCC1)Nc1ccc2c(c1)CCN2Cc1ccc(F)cc1 [2-cyclohexyl-N-(1-(4-fluorobenzyl)indolin-5-yl)acetamide] |
| A (degradation lower than 20%) | 3.54±0.88 | 8.23±1.36 | A (degradation lower than 20%) | CC(C)(C)CC(=O)Nc1ccc2c(ccn2Cc2ccc(C(F)(F)F)cc2)c1 [3,3-dimethyl-N-(1-(4-(trifluoromethyl)benzyl)-1H-indol-5-yl)butanamide] |
| A (degradation lower than 20%) | 1.34±0.10 | 2.64±0.77 | A (degradation lower than 20%) | COCCOCCC(=O)Nc1ccc2c(ccn2Cc2ccc(C(F)(F)F)cc2)c1 [3-(2-methoxyethoxy)-N-(1-(4-(trifluoromethyl)benzyl)-1H-indol-5-yl)propanamide] |
| B (20%< degradation<40%) | 0.48±0.07 | 0.80±0.14 | A (degradation lower than 20%) | CC(C)[C@H]1CC[C@H](C)C[C@@H]1OC(=O)Nc1ccc2c(c1)CCN2Cc1ccc(F)cc1 [(1S,2R,5S)-2-isopropyl-5-methylcyclohexyl (1-(4-fluorobenzyl)indolin-5-yl)carbamate] |
| C (degradation > 40%) | 1.22±0.11 | 1.53±0.39 | B (20%< degradation<40%) | O=S(=O)(Nc1ccc2c(c1)CCN2Cc1ccc(C(F)(F)F)cc1C(F)(F)F)C1CCCCC1 [N-(1-(2,4-bis(trifluoromethyl)benzyl)indolin-5-yl)cyclohexanesulfonamide] |
| C (degradation > 40%) | 3.79±1.09 | 5.82±1.38 | C (degradation > 40%) | O=S(=O)(Nc1ccc2c(c1)CCN2Cc1ccc(F)cc1F)C1CCCCC1 [N-(1-(2,4-difluorobenzyl)indolin-5-yl)cyclohexanesulfonamide] |
| B (20%< degradation<40%) | 1.18±0.08 | 1.45±0.08 | A (degradation lower than 20%) | O=C(Cc1ccc(Cl)cc1)N1CCc2cc(NS(=O)(=O)C3CCCCC3)ccc21 [N-(1-(2-(4-chlorophenyl)acetyl)indolin-5-yl)cyclohexanesulfonamide] |
| C (degradation > 40%) | 2.11±0.18 | 4.56±1.11 | C (degradation > 40%) | O=S(=O)(Nc1ccc2c(c1)CCN2Cc1ccc(F)c(F)c1)C1CCCCC1 [N-(1-(3,4-difluorobenzyl)indolin-5-yl)cyclohexanesulfonamide] |
| C (degradation > 40%) | – | – | B (20%< degradation<40%) | COc1ccc(CNc2ccc(NS(=O)(=O)C3CCCCC3)cc2)cc1 [N-(4-((4-methoxybenzyl)amino)phenyl) cyclohexanesulfonamide] |
| B (20%< degradation<40%) | – | – | A (degradation lower than 20%) | Cc1c(NS(=O)(=O)C2CCCCC2)ccc2c1ccn2Cc1ccc(C(F)(F)F)cc1 [N-(4-methyl-1-(4-(trifluoromethyl)benzyl)-1H-indol-5-yl)cyclohexanesulfonamide] |
| A (degradation lower than 20%) | – | – | A (degradation lower than 20%) | O=S(=O)(Nc1cc(F)c2c(ccn2Cc2ccc(C(F)(F)F)cc2)c1)C1CCCCC1 [N-(7-fluoro-1-(4-(trifluoromethyl)benzyl)-1H-indol-5-yl) cyclohexanesulfonamide] |
| B (20%< degradation<40%) | – | – | B (20%< degradation<40%) | O=S(=O)(Nc1cc(F)c2c(c1)CCN2Cc1ccc(C(F)(F)F)cc1)C1CCCCC1 [N-(7-fluoro-1-(4-(trifluoromethyl)benzyl)indolin-5-yl) cyclohexanesulfonamide] |
